Measured values from patent US20230072421A1, “TARGETED RADIOPHARMACEUTICALS FOR THE DIAGNOSIS AND TREATMENT OF PROSTATE CANCER” (Bayer AS, priority 2019, published 2023).

Legend:
[1] = test system: C4-2 cells; assay: Cell proliferation assay (CellTiter-Glo, 5-day exposure), C4-2; format: cell-based; settings: C4-2, 1000 cells/well, Th-227 labelled at 375 kBq/nmol, mean of 1 to 6 experiments
Outline: (§1)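 Cells were plated (4000/well VCaP, 1000/well for the other lines), left overnight at 37 °C with 5% CO2, then exposed for 5 days to Thorium-227-labelled PSMA ligands. Viability before and after exposure was measured by CellTiter-Glo.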

[2] = test system: LNCaP cells; assay: Cell proliferation assay (CellTiter-Glo, 5-day exposure), LNCaP; format: cell-based, human; settings: LNCaP, 1000 cells/well; Th-227 labelled at 375 kBq/nmol; 5-day exposure; mean of 1 to 6 experiments
Description: Inhibition of cell proliferation of Thorium-227 labeled PMSA SMOL ligands was tested different prostate cancer cell lines, namely 22Rv1, VCaP, C4-2 (all from ATCC, Manassas, Va., USA) and LNCaP (DMSZ, Braunschweig). Cells were seeded using the following conditions in 384 well plates (Corning) in 30 μl of growth media at 4000 cells/well for VCaP cells and 1000 cells/well for 22Rv1, C4-2 and LNCaP cells.
Cells were cultivated an incubator at 37° C. and 5% C02 over night. On the following days cells were treated in triplicates with serial dilutions of PSMA-SMOLs labeled with Th-227 at a specific activity of 375 kBq/nmol (RCP>70% as assessed by iTLC analysis; compounds where RCP was between 50-70% in individual experiments are marked with an * in the table) using a D300e Digital Dispenser (Tecan). In sister plates cell viability at treatment start (d=0) was determined using CellTiter-Glo® assay (CTG, Promega, Madison, Wis., USA), by adding 30 μl per well CTG solution, incubation for 10 min and reading of Luminescence in a PheraStarFSX instrument (BMG Labtech). After a 5-day exposure in the presenced of test compounds, cell viability of treated or untreated control cells was determined again using CellTiter-Glo® assay (Promega, Madison, Wis., USA). […] The DRC software is a Biobook Spreadsheet that was developed by Bayer AG and Bayer Business Services on the IDBS E-Workbook Suite platform (IDBS: ID Business Solutions Ltd., Guildford, UK).

[3] = test system: VCaP cells; assay: Cell proliferation assay (CellTiter-Glo, 5-day exposure), VCaP; format: cell-based; settings: 4000 cells/well, Th-227 labelled at 375 kBq/nmol, mean of 1 to 6 experiments
Outline: as §1

| Molecule | Proliferation assay on cancer cell lines by TTCs Default Pivot #3 IC50 [kBq/mL] C4-2 1000cells 375kBq/nmol (mean) [1] | Proliferation assay on cancer cell lines by TTCs Default Pivot #3 IC50 [kBq/mL] LnCap 1000cells 375kBq/nmol (mean) [2] | Proliferation assay on cancer cell lines by TTCs Default Pivot #3 IC50 [kBq/mL] VCap 4000cells 375kBq/nmol (mean) [3] |
| --- | --- | --- | --- |
| {N^6-[3-(isoquinolin-3-yl)-N-{(1r,4S)-4-[(2-{4,7,10-tris[(carboxy-kappaO)methyl]-1,4,7,10-tetraazacyclododecan-1-yl-kappa^2N^1,N^4}acetamido)methyl]cyclohexane-1-carbonyl}alanyl]-N^2-{[(1S)-1,3-dicarboxypropyl]carbamoyl}-L-lysinato(3−)}(^227Th)Thorium [Example 36-B-227Th] | 3.88 kBq/mL | 0.16 kBq/mL | 0.75 kBq/mL |
| COc1c(C[C@@H](NC(=O)c2ccc(CNC(=O)CN3CCN(CC(=O)[O-])CCN(CC(=O)[O-])CCN(CC(=O)[O-])CC3)cn2)C(=O)NCCCC[C@H](NC(=O)N[C@@H](CCC(=O)O)C(=O)O)C(=O)O)ccc2ccccc12.[227Th+4] [Example 33a-B-227Th, (3R,10S,14S)-3-[(1-methoxynaphthalen-2-yl)methyl]-1,4,12-trioxo-1-{5-[(2-{4,7,10-tris[(carboxy-kappaO)methyl]-1,4,7,10-tetraazacyclododecan-1-yl-kappa^2N^1,N^4}acetamido)methyl]pyridin-2-yl}-2,5,11,13-tetraazahexadecane-10,14,16-tricarboxylato(3−)(^227Th)Thorium] | 4.63 kBq/mL | 0.20 kBq/mL | 1.22 kBq/mL |
| O=C(O)CC[C@H](NC(=O)N[C@@H](CCCCNC(=O)[C@@H](Cc1ccc2cccnc2c1)NC(=O)[C@H]1CC[C@H](CNC(=O)C[N+]23CCN4CCN5CC[N+]6(CC2)CC(=O)[O][227Th-2]36([O]C(=O)C4)[O]C(=O)C5)CC1)C(=O)O)C(=O)O [Example 45-B-227Th, (3R,10S,14S)-1,4,12-trioxo-3-[(quinolin-7-yl)methyl]-1-{(1r,4S)-4-[(2-{4,7,10-tris[(carboxy-kappaO)methyl]-1,4,7,10-tetraazacyclododecan-1-yl-kappa^2N^1,N^4}acetamido)methyl]cyclohexyl}-2,5,11,13-tetraazahexadecane-10,14,16-tricarboxylato(3−)(^227Th)Thorium] | 1.02 kBq/mL | 0.14 kBq/mL | 0.94 kBq/mL |
| O=C(O)CC[C@H](NC(=O)N[C@@H](CCCCNC(=O)[C@@H](Cc1ccc2cnccc2c1)NC(=O)[C@H]1CC[C@H](CNC(=O)C[N+]23CCN4CCN5CC[N+]6(CC2)CC(=O)[O][227Th-2]36([O]C(=O)C4)[O]C(=O)C5)CC1)C(=O)O)C(=O)O [Example 44-B-227Th, (3R,10S,14S)-3-[(isoquinolin-6-yl)methyl]-1,4,12-trioxo-1-{(1r,4S)-4-[(2-{4,7,10-tris[(carboxy-kappaO)methyl]-1,4,7,10-tetraazacyclododecan-1-yl-kappa^2N^1,N^4}acetamido)methyl]cyclohexyl}-2,5,11,13-tetraazahexadecane-10,14,16-tricarboxylato(3−)(^227Th)Thorium] | 0.67 kBq/mL | 0.08 kBq/mL | 0.71 kBq/mL |
| CNc1cc(C[C@@H](NC(=O)[C@H]2CC[C@H](CNC(=O)CN3CCN4CCN5CCN(CC3)CC(=O)[O][227Th]([O]C(=O)C4)[O]C(=O)C5)CC2)C(=O)NCCCC[C@H](NC(=O)N[C@@H](CCC(=O)O)C(=O)O)C(=O)O)cc2ccccc12 [Example 37-B-227Th, (3R,10S,14S)-3-{[4-(methylamino)naphthalen-2-yl]methyl}-1,4,12-trioxo-1-{(1r,4S)-4-[(2-{4,7,10-tris[(carboxy-kappaO)methyl]-1,4,7,10-tetraazacyclododecan-1-yl-kappa^2N^1,N^4}acetamido)methyl]cyclohexyl}-2,5,11,13-tetraazahexadecane-10,14,16-tricarboxylato(3−)(^227Th)Thorium] | 1.19 kBq/mL | 0.13 kBq/mL | 0.87 kBq/mL |
| O=C(O)CC[C@H](NC(=O)N[C@@H](CCCCNC(=O)[C@@H](Cc1ccc2ccncc2c1)NC(=O)[C@H]1CC[C@H](CNC(=O)C[N+]23CCN4CCN5CC[N+]6(CC2)CC(=O)[O][227Th-2]36([O]C(=O)C4)[O]C(=O)C5)CC1)C(=O)O)C(=O)O [Example 42-B-227Th, (3R,10S,14S)-3-[(isoquinolin-7-yl)methyl]-1,4,12-trioxo-1-{(1r,4S)-4-[(2-{4,7,10-tris[(carboxy-kappaO)methyl]-1,4,7,10-tetraazacyclododecan-1-yl-kappa^2N^1,N^4}acetamido)methyl]cyclohexyl}-2,5,11,13-tetraazahexadecane-10,14,16-tricarboxylato(3−)(^227Th)Thorium] | 0.72 kBq/mL | 0.10 kBq/mL | 0.70 kBq/mL |
| O=C(O)CC[C@H](NC(=O)N[C@@H](CCCCNC(=O)[C@@H](Cc1ccc2c(c1)CCCO2)NC(=O)[C@H]1CC[C@H](CNC(=O)C[N+]23CCN4CCN5CC[N+]6(CC2)CC(=O)[O][227Th-2]36([O]C(=O)C4)[O]C(=O)C5)CC1)C(=O)O)C(=O)O [Example 38-B-227Th, {N^6-[3-(3,4-dihydro-2H-1-benzopyran-6-yl)-N-{(1r,4S)-4-[(2-{4,7,10-tris[(carboxy-kappaO)methyl]-1,4,7,10-tetraazacyclododecan-1-yl-kappa^2N^1,N^4}acetamido)methyl]cyclohexane-1-carbonyl}-D-alanyl]-N^2-{[(1S)-1,3-dicarboxypropyl]carbamoyl}-L-lysinato(3−)}(^227Th)Thorium] | 0.91 kBq/mL | 0.10 kBq/mL | 0.44 kBq/mL |
| Cc1cc2c(c(=O)n1CC(=O)O)[O][227Th]13[O]c4c(cc(C)n(CC(=O)O)c4=O)C(=O)NCCN(CCCN(CCNC(=O)c4cc(C)n(CC(=O)O)c(=O)c4[O]1)CCNC(=O)c1cc(C)n(CC(=O)NCc4ccc(C(=O)N[C@@H](Cc5ccc6ccccc6c5)C(=O)NCCCC[C@H](NC(=O)N[C@H](CCC(=O)O)C(=O)O)C(=O)O)nc4)c(=O)c1[O]3)CCNC2=O [Example 25-C-D-227Th] | 2.95 kBq/mL | 0.49 kBq/mL | 2.26 kBq/mL |
